Results: publication PMC5833296 (Journal of medicinal chemistry, 2018)
Read-outs that look alike come from different tables or passages of the source. Marks after values point to notes of the source that are not given here.

Experiments:
BoNT/A = settings: mouse, in vivo; cited from earlier work
BoNT/A holotoxin [1] = molecular target: BoNT/A holotoxin (Clostridium botulinum, UniProt P0DPI1); test: cell-based
BoNT/A holotoxin [2] = molecular target: BoNT/A holotoxin (Clostridium botulinum, UniProt P0DPI0)
Sequence of BoNT/A holotoxin (Clostridium botulinum, UniProt P0DPI0) (P0DPI0 2-1296 limits assumed): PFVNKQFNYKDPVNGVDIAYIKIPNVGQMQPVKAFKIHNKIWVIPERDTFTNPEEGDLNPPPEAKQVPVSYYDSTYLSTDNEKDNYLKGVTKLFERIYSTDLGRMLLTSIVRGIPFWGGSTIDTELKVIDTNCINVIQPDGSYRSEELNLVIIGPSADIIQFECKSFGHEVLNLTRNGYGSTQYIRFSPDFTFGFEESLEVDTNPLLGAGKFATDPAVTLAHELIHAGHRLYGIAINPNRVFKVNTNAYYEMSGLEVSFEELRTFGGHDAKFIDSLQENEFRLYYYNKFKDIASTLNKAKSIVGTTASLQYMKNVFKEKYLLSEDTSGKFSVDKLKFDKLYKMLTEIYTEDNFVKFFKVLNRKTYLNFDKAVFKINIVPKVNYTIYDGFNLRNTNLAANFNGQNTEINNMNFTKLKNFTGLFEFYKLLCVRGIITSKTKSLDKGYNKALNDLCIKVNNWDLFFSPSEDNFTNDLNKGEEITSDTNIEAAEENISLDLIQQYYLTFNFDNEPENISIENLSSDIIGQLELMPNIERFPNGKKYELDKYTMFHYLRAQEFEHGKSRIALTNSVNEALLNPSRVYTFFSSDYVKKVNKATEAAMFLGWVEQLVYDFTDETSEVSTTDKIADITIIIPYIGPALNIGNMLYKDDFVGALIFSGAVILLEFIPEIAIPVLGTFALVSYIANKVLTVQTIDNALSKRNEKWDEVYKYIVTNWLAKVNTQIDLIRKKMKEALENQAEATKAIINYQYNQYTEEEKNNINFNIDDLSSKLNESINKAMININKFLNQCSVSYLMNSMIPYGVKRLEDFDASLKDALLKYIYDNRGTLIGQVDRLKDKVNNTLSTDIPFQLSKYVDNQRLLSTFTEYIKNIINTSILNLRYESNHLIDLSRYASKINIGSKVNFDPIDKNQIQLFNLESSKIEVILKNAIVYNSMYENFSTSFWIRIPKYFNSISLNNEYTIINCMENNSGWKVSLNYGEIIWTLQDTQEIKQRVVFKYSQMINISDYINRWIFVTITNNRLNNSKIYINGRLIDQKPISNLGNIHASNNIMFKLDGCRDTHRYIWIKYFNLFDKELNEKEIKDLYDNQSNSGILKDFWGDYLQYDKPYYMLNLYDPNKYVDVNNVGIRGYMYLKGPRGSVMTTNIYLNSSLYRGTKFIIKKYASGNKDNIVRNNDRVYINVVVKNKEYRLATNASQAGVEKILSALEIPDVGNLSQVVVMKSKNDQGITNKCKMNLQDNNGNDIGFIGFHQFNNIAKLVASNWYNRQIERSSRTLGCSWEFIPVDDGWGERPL

healthy mice = settings: mouse, in vivo, po, 160 mg/kg
[3] = in vivo

Sequence of BoNT/A holotoxin (Clostridium botulinum, UniProt P0DPI1) (P0DPI1 2-448 limits assumed): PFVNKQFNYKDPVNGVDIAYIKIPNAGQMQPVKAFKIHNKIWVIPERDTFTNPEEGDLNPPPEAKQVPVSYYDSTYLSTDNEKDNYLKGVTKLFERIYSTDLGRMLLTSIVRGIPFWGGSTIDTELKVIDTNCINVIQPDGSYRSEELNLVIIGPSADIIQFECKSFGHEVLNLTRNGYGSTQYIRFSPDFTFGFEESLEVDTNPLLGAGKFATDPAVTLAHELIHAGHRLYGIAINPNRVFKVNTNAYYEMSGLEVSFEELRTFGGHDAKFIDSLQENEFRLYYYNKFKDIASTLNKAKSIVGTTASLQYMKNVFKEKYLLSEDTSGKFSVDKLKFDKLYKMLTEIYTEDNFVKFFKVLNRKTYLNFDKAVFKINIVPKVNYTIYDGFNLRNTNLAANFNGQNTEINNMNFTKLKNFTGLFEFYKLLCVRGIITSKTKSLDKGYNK

| Compound | % of full length SNAP-25, mES-MNs pre intoxication (BoNT/A holotoxin [1]; 10 μM) | % of full length SNAP-25, mES-MNs pre intoxication (BoNT/A holotoxin [1]; 20 μM) | exp LogD (pH 1) | exp LogD (pH 10) | also measured |
| --- | --- | --- | --- | --- | --- |
| O=C(CS)Nc1cc(-c2ccc(F)cc2)n[nH]1 [ABS 252, N-(3-(4-fluorophenyl)-1H pyrazol-5 yl)-2-mercaptoacetamide] | – | – | – | – | survival of BoNT intoxicated mice (BoNT/A): effective in extending survival |
| CC(=O)O[C@H]1C[C@H]2[C@@H]([C@H](OC(C)=O)C[C@@H]3C[C@H](NCCCCCCNc4ccnc5cc(Cl)ccc45)CC[C@@]32C)[C@@H]2CC[C@H]([C@H](C)CCCNCCCCCCNc3ccnc4cc(Cl)ccc34)[C@@]12C [Compound 1, reference compound] | 70; 84% | 70; 84% | – | – | IC50 (BoNT/A holotoxin [1]): < 10 µM; % of full length SNAP-25, mES-MNs post intoxication (BoNT/A holotoxin [2]): 36; 20% |
| CC(=O)O[C@H]1C[C@H]2[C@@H]([C@H](OC(C)=O)C[C@@H]3C[C@H](N)CC[C@@]32C)[C@@H]2CC[C@H]([C@H](C)CCCNCCCCNc3ccnc4ccccc34)[C@@]12C [Compound 14] | 28; 67% | 28; 67% | 2.14 (pH=1) | – | IC50 (BoNT/A holotoxin [1]): 10 to 20 µM |
| CC(=O)O[C@H]1C[C@H]2[C@@H]([C@H](OC(C)=O)C[C@@H]3C[C@H](N)CC[C@@]32C)[C@@H]2CC[C@H]([C@H](C)CCCN(C)CCCCNc3ccnc4ccccc34)[C@@]12C [Compound 15] | 70; 69% | 70; 69% | 2.11 (pH=1) | – | – |
| CC(=O)O[C@H]1C[C@H]2[C@@H]([C@H](OC(C)=O)C[C@@H]3C[C@H](N)CC[C@@]32C)[C@@H]2CC[C@H]([C@H](C)CCCNCCCC(C)Nc3ccnc4ccccc34)[C@@]12C (stereo partly drawn) [Compound 17] | 67; 69% | 67; 69% | 2.28 (pH=1) | – | – |
| CC(=O)O[C@H]1C[C@H]2[C@@H]([C@H](OC(C)=O)C[C@@H]3C[C@H](N)CC[C@@]32C)[C@@H]2CC[C@H]([C@H](C)CCCN(C)CCCC(C)Nc3ccnc4ccccc34)[C@@]12C (stereo partly drawn) [Compound 18] | – | – | 2.38 (pH=1) | – | % of full length SNAP-25, mES-MNs pre intoxication (BoNT/A holotoxin [1]): 20; 41% |
| CC(=O)O[C@H]1C[C@H]2[C@@H]([C@H](OC(C)=O)C[C@@H]3C[C@H](N)CC[C@@]32C)[C@@H]2CC[C@H]([C@H](C)CCCNC(C)CCCNc3ccnc4ccccc34)[C@@]12C (stereo partly drawn) [Compound 19] | 86; 87% | 86; 87% | 2.21 (pH=1) | – | Mice alive/Total mice (healthy mice): 3/5 |
| C[C@H](CCCNCCCCNc1ccnc2cc(Cl)ccc12)[C@H]1CC[C@H]2[C@@H]3[C@H](O)C[C@@H]4C[C@H](N)CC[C@]4(C)[C@H]3C[C@H](O)[C@]12C [Compound 24] | – | – | 2.97 (pH=1) | – | IC50 (BoNT/A holotoxin [1]): 8 to 16 µM; % of full length SNAP-25, mES-MNs pre intoxication (BoNT/A holotoxin [1]; 8 μM): 46; 58 ^e %; % of full length SNAP-25, mES-MNs pre intoxication (BoNT/A holotoxin [1]; 16 μM): 46; 58 ^e %; detection as metabolite in mouse samples after oral 16 [3]: None of these metabolites were detected |
| CC(CCCNc1ccnc2ccccc12)NCc1ccc(-c2csc3ccc(F)cc23)cc1 (stereo not drawn) [Compound 34] | – | – | – | 3.85 (pH=10) | % of full length SNAP-25, mES-MNs pre intoxication (BoNT/A holotoxin [1]): 58; 68%; IC50 (BoNT/A holotoxin [1]): 10 to 20 µM; Mice alive/Total mice (healthy mice): 5/5 |
| CC(CCCNCc1ccc(-c2csc3ccc(C#N)cc23)cc1)Nc1ccnc2ccccc12 (stereo not drawn) [Compound 36] | 34; 53% | 34; 53% | – | 3.67 (pH=10) | – |
| CN(CCCCNc1ccnc2ccccc12)Cc1ccc(-c2csc3ccc(F)cc23)cc1 [Compound 37] | 44; 55% | 44; 55% | – | 3.98 (pH=10) | – |
| CC(CCCN(C)Cc1ccc(-c2csc3ccc(C#N)cc23)cc1)Nc1ccnc2ccccc12 (stereo not drawn) [Compound 38] | – | – | – | 3.42 (pH=10) | % of full length SNAP-25, mES-MNs pre intoxication (BoNT/A holotoxin [1]): 59; 64%; IC50 (BoNT/A holotoxin [1]): 10 to 20 µM |
| N#Cc1ccc(-c2ccc(-c3ccc(CNCCCCCCNc4ccnc5ccccc45)cc3)s2)cc1 [Compound 46] | 22; 48% | 22; 48% | 3.08 (pH=1) | – | – |
| N#Cc1ccc(-c2ccc(-c3cccc(CNCCCCCCNc4ccnc5ccccc45)c3)s2)cc1 [Compound 50] | 46; 71% | 46; 71% | 3.08 (pH=1) | – | – |
| CN(CCCNc1ccnc2cc(Cl)ccc12)CC12CC3CC(CC(C3)C1)C2 [Compound 57] | 51; 56% | 51; 56% | – | 3.24 (pH=10) | Mice alive/Total mice (healthy mice): 4/5 |
| CC(CCN(C)CC12CC3CC(CC(C3)C1)C2)Nc1ccnc2cc(Cl)ccc12 (stereo not drawn) [Compound 60] | 63; 72% | 63; 72% | – | 3.47 (pH=10) | IC50 (BoNT/A holotoxin [1]): < 10 µM; protection of SNAP-25, pre-exposure dose-response experiment (BoNT/A holotoxin [1]): 90%; Mice alive/Total mice (healthy mice): 3/5 |
| CN(CCCNc1ccnc2ccccc12)CC12CC3CC(CC(C3)C1)C2 [Compound 68] | 30; 31% | 30; 31% | – | – | – |
| CC(CCNc1ccnc2ccccc12)NCCC12CC3CC(CC(C3)C1)C2 (stereo not drawn) [Compound 81] | 23; 24% | 23; 24% | – | – | – |
| CC(CCN(C)CC12CC3CC(CC(C3)C1)C2)Nc1ccnc2ccccc12 (stereo not drawn) [Compound 85] | – | – | – | – | % of full length SNAP-25, mES-MNs pre intoxication (BoNT/A holotoxin [1]): 47; 46% |
| N#Cc1ccc2scc(-c3ccc(CNCCCCNc4ccnc5ccccc45)cc3)c2c1 [Compound 86] | 21; 26% | 21; 26% | – | 3.67 (pH=10) | – |
| N#Cc1ccc2scc(-c3ccc(CNCCCCCCNc4ccnc5ccccc45)cc3)c2c1 [Compound 87] | 36; 43% | 36; 43% | – | 3.85 (pH=10) | – |
| CC(CCCNCc1ccc(-c2csc3ccc(F)cc23)cc1)Nc1ccnc2ccccc12 (stereo not drawn) [Compound 91] | – | – | – | 3.98 (pH=10) | % of full length SNAP-25, mES-MNs pre intoxication (BoNT/A holotoxin [1]): 62; 62% |
| N#Cc1ccc(-c2ccc(-c3ccc(CNCCCCCCCCNc4ccnc5ccccc45)cc3)s2)cc1 [Compound 93] | – | – | 3.42 (pH=1) | – | % of full length SNAP-25, mES-MNs pre intoxication (BoNT/A holotoxin [1]): 31; 70%; Mice alive/Total mice (healthy mice): 5/5 |
| CN(CCCCCCCCNc1ccnc2ccccc12)Cc1ccc(-c2ccc(-c3ccc(C#N)cc3)s2)cc1 [Compound 96] | – | – | 3.33 (pH=1) | – | % of full length SNAP-25, mES-MNs pre intoxication (BoNT/A holotoxin [1]): 54; 60%; IC50 (BoNT/A holotoxin [1]): 5 to 10 µM; Mice alive/Total mice (healthy mice): 5/5 |
| N#Cc1ccc(-c2ccc(-c3ccc(CNCCCCNc4ccnc5ccccc45)cc3)s2)cc1 [Compound 101] | 18; 39% | 18; 39% | 2.93 (pH=1) | – | – |
| CC(CCNc1ccnc2cc(Cl)ccc12)NCC12CC3CC(CC(C3)C1)C2 (stereo not drawn) [Compound 102] | 29; 30% | 29; 30% | – | 3.40 (pH=10) | – |
| CC(CCNCCC12CC3CC(CC(C3)C1)C2)Nc1c(F)cnc2cc(Cl)ccc12 (stereo not drawn) [Compound 103] | 30; 29% | 30; 29% | – | 4.33 (pH=10) | – |
| CC(CCNCC12CC3CC(CC(C3)C1)C2)Nc1c(F)cnc2cc(Cl)ccc12 (stereo not drawn) [Compound 104] | 31; 35% | 31; 35% | – | 3.24 (pH=10) | – |
| CC(CCNCC12CC3CC(CC(C3)C1)C2)Nc1c(F)cnc2ccccc12 (stereo not drawn) [Compound 105] | 24; 23% | 24; 23% | – | 3.09 (pH=10) | – |
| CC(CCNCCC12CC3CC(CC(C3)C1)C2)Nc1c(F)cnc2ccccc12 (stereo not drawn) [Compound 106] | 30; 32% | 30; 32% | – | 4.13 (pH=10) | – |
